Measured values: the NIST ThermoML archive (doi:10.1021/je034097r)
Numbers after ± are expanded uncertainties.

Settings: Capillary rise

COC [dimethyl ether]
Settings	surface tension liquid-gas [mN/m]
213.12 K	24.52 ± 0.31
223.11 K	22.95 ± 0.31
228.19 K	22.26 ± 0.31
233.31 K	21.44 ± 0.31
238.15 K	20.75 ± 0.3
243.12 K	19.81 ± 0.3
248.12 K	19.3 ± 0.3
253.09 K	18.54 ± 0.3
258.11 K	17.71 ± 0.3
263.12 K	16.99 ± 0.3
268.08 K	16.27 ± 0.3
273.08 K	15.43 ± 0.3
278.06 K	14.6 ± 0.3
283.07 K	13.97 ± 0.3
288.04 K	13.16 ± 0.3
293.09 K	12.66 ± 0.3
298.08 K	11.73 ± 0.3
303.2 K	11 ± 0.3
308.12 K	10.22 ± 0.3
313.12 K	9.557 ± 0.3
318.18 K	9.089 ± 0.3
323.18 K	8.428 ± 0.3
328.14 K	7.64 ± 0.3
333.14 K	7.045 ± 0.3
338.09 K	6.368 ± 0.3
343.13 K	5.717 ± 0.3
348.07 K	5.148 ± 0.3
353.11 K	4.435 ± 0.3
358.11 K	3.94 ± 0.3
363.1 K	3.315 ± 0.3
368.04 K	2.779 ± 0.3
